Experimental findings from PubChem BioAssay (NCI) are described below.

What all share (assay): NCI-60 cell line screen, 48 h
The test system of assay [1] is CCRF-CEM leukemia.
The subject of assay [2] is EKVX NSCLC.
The subject of assay [3] is HOP-62 NSCLC.
Assay [4] relates to LOX IMVI melanoma.
For assay [5], the system named is M14 melanoma.
The test system of assay [6] is RPMI-8226 leukemia.
Assay [7] concerns SK-MEL-28 melanoma.
In assay [8] the test system is SK-MEL-5 melanoma.
Assay [9] concerns SNB-75 CNS.
Assay [10] concerns U251 CNS.

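Growth conditions: 96-well plates. Treatment: test compound, 48 hours, 5 concentrations. Analysis: linear interpolation between bracketing concentrations; unreached endpoints set to highest concentration. At the GI50, growth is halved. TGI is the concentration that stops growth completely.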 A value given as a limit tells only on which side of the number the result lay.

Regarding `COc1cc2ncnc(Oc3ccc(NC(=O)Nc4ccc(CN5CCOCC5)c(C(F)(F)F)c4)c4ccccc34)c2cc1OC`, the GI50 in [1] was 1.18 µM; in assay [2], 0.463 µM; in assay [3], 2.5 µM; in assay [4], 1.09 µM; in assay [5], 0.935 µM; in assay [6], 0.297 µM. Moreover, the GI50 is 0.666 µM in assay [7], 0.499 µM in assay [8], 0.957 µM in [9] and 1.05 µM in [10]. Moreover, the TGI in [1] worked out at 40.7 µM; in assay [2], 5.91 µM; in assay [3], 10.1 µM; in assay [4], 2.82 µM; in assay [5] it was 4.14 µM; in assay [6], 2.02 µM. Besides, the TGI in assay [7] amounted to 3.03 µM; in [8] it was 2.34 µM; in assay [9], 12.8 µM; in assay [10], 4.01 µM.

As to `CC(C)(C)NCC(O)c1ccccc1Cl` (stereo not given), the GI50 in assay [1], in assay [2], in assay [3], in assay [4], in assay [5] and in assay [6] was more than 100 µM each time. Moreover, the GI50 in assay [7], in [8], in [9] and in assay [10] was more than 100 µM in each case. Moreover, the TGI in assay [1], in assay [2], in assay [3], in assay [4], in assay [5] and in [6] was more than 100 µM throughout. In addition, the TGI in [7], in assay [8], in assay [9] and in [10] was more than 100 µM in each case.

Turning to `CC(C)N1CC2CC(CN(C(=O)c3ccc(Cl)cc3)C2)C1`, the TGI in assay [1], in assay [2], in assay [3], in assay [4], in assay [5] and in assay [6] was more than 100 µM each time. In addition, the TGI in assay [7], in [8], in assay [9] and in assay [10] was more than 100 µM in each case.

With `C=C1C(=O)O[C@@H]2/C=C(/C)[C@@H](OC(C)=O)C[C@@H](O)/C(C)=C\[C@@H](OC(=O)[C@]3(C)O[C@@H]3C)[C@@H]12`, the TGI in [1] was 11.7 µM; in [2], 24.4 µM; in assay [3] it was more than 100 µM; in [4] it was 20.4 µM; in [5] it was 25 µM; in assay [6], 26.3 µM. For the same molecule, the TGI in [7] turned out to be 23.2 µM; in assay [8], 24.7 µM; in [9] it was 37.6 µM; in assay [10], 31.3 µM.

For the molecule `Cc1cc2nc3c(C#N)c(C)c(CCCl)c(Cl)n3c2cc1C`, the TGI in assay [1] was 7.38 µM; in [2] it was 35.6 µM; in assay [3], 4.64 µM; in [4] it was 2.88 µM; in assay [5] it was 6.16 µM; in assay [6], 5.49 µM. Also, the TGI in assay [7] is 15.5 µM; in assay [8], 8.82 µM; in [9], 4.63 µM; in [10] it was more than 60.9 µM.

Regarding `COc1cc2c(cc1OC)C(Cl)C(c1ccc(Br)cc1)=C2Cl` (stereo not given), the TGI was more than 100 µM in assay [1]; 17.2 µM in [2]; 35.4 µM in assay [3]; 24.4 µM in assay [4]; 23.3 µM in assay [5]; 15.2 µM in [6]. The TGI in [7] came to 30.7 µM; in assay [8], 28.6 µM; in assay [9], 27.7 µM; in [10], 24.8 µM.

With `COc1cc2c(cc1OCC(=O)Nc1ccc(Cl)cc1C(=O)c1ccccc1Cl)N=CC1CCCN1C2=O` (stereo not given), the GI50 in assay [1] is 6.52 µM; in assay [2], 20.3 µM; in assay [3], 13.8 µM; in assay [4], 12.1 µM; in assay [5] it was 14.1 µM; in assay [6], 20.3 µM. In addition, the GI50 was 19.9 µM in [7], 10 µM in [8], 14.2 µM in assay [9] and 6.36 µM in assay [10]. In addition, the TGI is more than 100 µM in assay [1]; 35.1 µM in assay [2]; 28.6 µM in assay [3]; 26.2 µM in assay [4]; 27.9 µM in [5]; 98.8 µM in [6]. The TGI amounted to 36.4 µM in assay [7], 21.9 µM in [8], 28.8 µM in assay [9] and 19.3 µM in assay [10].

Take `CC(=O)OC1CC2(C)C(=CC1C1SCCS1)CCC1C2CCC2(C)C(OC(C)=O)CCC12` (stereo not given): the TGI in [1], in assay [2], in assay [3], in assay [4], in [5] and in assay [6] was more than 100 µM throughout. The TGI in assay [7] is more than 100 µM; in [8], more than 100 µM; in [9] it was 63.1 µM; in assay [10], more than 100 µM.

Consider `[N-]=[N+]=C(C(=O)CN1CCCC1=O)S(=O)(=O)c1ccccc1`, for which the TGI in assay [1], in assay [2], in assay [3], in [4], in assay [5] and in assay [6] was more than 100 µM each time. Besides, the TGI in [7], in [8], in assay [9] and in [10] was more than 100 µM throughout.

For `CC(C)[C@@H](C(=O)O[C@@H]1/C=C/C(=O)O[C@@H](C)CCC/C=C/[C@@H]2C[C@H](O)C[C@H]21)N(C)C`, the GI50 was 7.84 µM in [1]; 12.5 µM in [2]; 22.3 µM in [3]; 17 µM in assay [4]; 15.2 µM in assay [5]; 3.93 µM in assay [6]. Further, the GI50 in assay [7] was 6.03 µM; in assay [8], 2.25 µM; in assay [9] it was 2.89 µM; in assay [10] it was 30.2 µM. The TGI in assay [1] is 35.1 µM; in assay [2], 64.9 µM; in [3], more than 100 µM; in assay [4], 39.9 µM; in assay [5] it was 63.2 µM; in assay [6], 27.1 µM. Besides, the TGI in assay [7] is 23.5 µM; in assay [8] it was 5.37 µM; in assay [9], 27.7 µM; in assay [10], more than 100 µM.
